Our source for the Activity values is ChEMBL document CHEMBL2074535, “Differential interactions of cytochalasins with P-glycoprotein” (Oncol Res, 1995).

Series [1] concerns the target T1, ATP-dependent translocase ABCB1 (Homo sapiens, UniProt P08183). Kind of series: TP_TRANSPORTER: ATP hydrolysis in membranes from MCF/ADR cells. It counts as functional, cell membranes, Membrane.
The target in series [2] is T1, ATP-dependent translocase ABCB1. The series can be described thus: TP_TRANSPORTER: increase in Vinblastine intracellular accumulation (Vinblastine: 0.01-0.02 uM, Dihydrocytochalasin B: 10 uM) in MCF-7/ADR cells. It is filed as functional, cell-based. To be noted: nci/adr-res.
The target is the same in series [3]. The series can be described thus: TP_TRANSPORTER: increase in Vinblastine intracellular accumulation (Vinblastine: 0.01-0.02 uM, Cytochalasine E: 10 uM) in MCF-7/ADR cells. The following applies: nci/adr-res. It counts as functional, cell-based.

Each structure is given as a SMILES string.

T1 sequence (P08183 whole entry): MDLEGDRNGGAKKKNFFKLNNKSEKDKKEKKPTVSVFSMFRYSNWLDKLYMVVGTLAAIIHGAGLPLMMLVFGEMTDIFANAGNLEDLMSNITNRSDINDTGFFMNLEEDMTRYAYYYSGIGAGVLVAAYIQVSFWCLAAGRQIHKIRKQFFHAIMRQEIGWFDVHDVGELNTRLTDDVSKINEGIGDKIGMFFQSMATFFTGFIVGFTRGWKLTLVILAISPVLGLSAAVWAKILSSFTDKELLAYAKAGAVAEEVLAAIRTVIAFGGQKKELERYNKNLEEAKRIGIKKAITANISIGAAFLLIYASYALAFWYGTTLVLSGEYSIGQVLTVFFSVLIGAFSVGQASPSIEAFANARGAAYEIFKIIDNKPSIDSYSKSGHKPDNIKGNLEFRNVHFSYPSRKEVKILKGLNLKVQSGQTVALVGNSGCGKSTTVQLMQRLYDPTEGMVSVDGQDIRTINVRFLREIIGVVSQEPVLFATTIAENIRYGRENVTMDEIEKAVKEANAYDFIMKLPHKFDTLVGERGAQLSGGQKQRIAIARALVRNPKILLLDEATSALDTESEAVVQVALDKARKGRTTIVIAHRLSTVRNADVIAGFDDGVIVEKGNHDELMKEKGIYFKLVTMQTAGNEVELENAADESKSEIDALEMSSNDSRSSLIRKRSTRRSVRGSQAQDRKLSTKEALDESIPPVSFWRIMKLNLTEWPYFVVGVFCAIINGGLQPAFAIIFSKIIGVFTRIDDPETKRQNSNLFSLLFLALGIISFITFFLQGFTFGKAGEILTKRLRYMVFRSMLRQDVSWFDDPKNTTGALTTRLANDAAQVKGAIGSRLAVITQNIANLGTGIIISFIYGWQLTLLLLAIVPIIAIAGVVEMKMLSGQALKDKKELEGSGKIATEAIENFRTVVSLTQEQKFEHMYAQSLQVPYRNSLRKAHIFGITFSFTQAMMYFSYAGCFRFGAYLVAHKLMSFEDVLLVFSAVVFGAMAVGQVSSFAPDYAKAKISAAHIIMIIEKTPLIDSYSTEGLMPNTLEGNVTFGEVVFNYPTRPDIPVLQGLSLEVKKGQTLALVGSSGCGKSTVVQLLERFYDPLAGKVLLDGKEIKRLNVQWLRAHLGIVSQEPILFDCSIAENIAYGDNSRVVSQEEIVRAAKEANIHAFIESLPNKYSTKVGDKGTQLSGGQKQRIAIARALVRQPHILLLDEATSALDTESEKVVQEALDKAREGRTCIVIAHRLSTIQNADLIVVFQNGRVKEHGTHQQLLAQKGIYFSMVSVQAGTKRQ

As to `C=C1[C@@H](C)[C@H]2[C@H](Cc3ccccc3)NC(=O)[C@]23OC(=O)CC[C@H](O)CCC[C@@H](C)C/C=C/[C@H]3[C@@H]1O` [DIHYDROCYTOCHALASIN B], the Activity result in series [1] is “substrate [+]”; in series [2], 257%.

Turning to `C[C@H]1C/C=C/[C@H]2[C@@H]3O[C@]3(C)[C@@H](C)[C@H]3[C@H](Cc4ccccc4)NC(=O)[C@]32OC(=O)O/C=C/[C@@](C)(O)C1=O` [CYTOCHALASIN E], the Activity in series [3] worked out at 190%.
